Data: patent publication US10098895B2, “Treatment of symptoms related to neurodegenerative disorders through pharmacological dermal activation of cranial nerves” (GLIA, LLC, priority 2016, dated 2018)

Experiments:
[1] = tested on: Parkinson's disease symptoms; assay: Example 2: Parkinson's disease subject, topical progesterone and testosterone; assay type: in vivo, human
Description: A person was diagnosed with Parkinson's disease in August of 2015. Notable symptoms include both resting and action tremor of the left hand and fingers, forearm, and, to a lesser extent, the right hand and the left leg. Handwriting and computer keyboard work were difficult. They had ocular symptoms associated with the disease, including dry eye disease with moderate to severe burning and grittiness, rapid blink rate, and partial blinking. They used artificial tears constantly in an attempt to alleviate the ocular symptoms. They had not been on any Parkinson's medications. Their Parkinson's tremor followed an “on-off” cycle that correlated with their stress levels, the “on” cycle being times with low stress and few symptoms, and the “off” cycle induced by stress showing an increase in symptoms.
In late February 2017, the subject started applying single daily doses of 0.125% testosterone to the forehead and ear conchae. By the third day of treatment, the subject was tremor-free for periods of 4-6 hours, and the “on” part of the cycle was more frequent. […] The dose of testosterone was increased to 0.2% once daily in early April.
In July 2017, testosterone application was stopped after a taper to evaluate its effects. […] On Aug. 17, 2017, they reported extreme anxiety.
That same afternoon, the subject applied 0.2% testosterone to their forehead and ear conchae, and the next day reported less anxiety and more “on” cycles. By Aug. 20, 2017, they reported having stabilized on the once daily applications with a 60% or greater increase in “on” periods. On August 28, they reported going 9 hours without tremors and leg spasms. On Aug. 30, 2017, the subject was able to walk 8 miles and exercised in between. They described themself as feeling 100%.

chronic ocular GVHD [2] = assay: Example 4: chronic ocular GVHD, progesterone 1% to the forehead; assay type: in vivo, human; settings: after 4 weeks
Description: A patient with chronic ocular GVHD, upon examination, had numerous ocular surface conditions as well as damaged Meibomian glands and ocular disease behind the eye. There was notable ocular surface disease including no visible production of tear film observed by Tearscope, profuse exudate in eyes, lid sticking, and recurring filamentary keratitis.

chronic ocular GVHD [3] = assay: Example 5: second case of chronic ocular GVHD, tear film breakup time by Keratograph 5; assay type: in vivo, human
Experimental: A patient with chronic ocular GVHD complained of eye discomfort, burning, and sticking lids. […] Their first-measured tear film breakup time was 7.4 seconds, with an average breakup time of 11.39 seconds. The patient was treated with a single dose of progesterone 1% to their forehead, followed by retesting of the tear film breakup time after 30 minutes. At that time, the first-measured tear film breakup time was 21.03 seconds, with an average breakup time of 21.35 seconds. The tear meniscus height in both eyes increased over 0.6 mm following the single application of progesterone.

chronic ocular GVHD [4] = assay: Example 6: third case of chronic ocular GVHD, Tearscope examination; assay type: in vivo, human; settings: progesterone 1% to forehead, single dose
Experimental: A patient with chronic ocular GVHD was examined and found to have ocular surface disease in both eyes, including filamentary keratitis. Upon examination by Tearscope there was a lack of tear film production evident in both eyes along with pronounced filaments in the left eye. They were treated with progesterone 1% to their forehead and re-examined 50 minutes later by Tearscope.

[5] = tested on: herpes ophthalmicus and herpes keratitis; assay: Example 8: herpes ophthalmicus and herpes keratitis patient; assay type: in vivo, human
Description: A patient experienced an episode of herpes ophthalmicus and herpes keratitis in September 2003, resulting in thinning melt of the left cornea, loss of vision, inflammation, neuralgia, and a rash of blisters to the left forehead, upper nose, and temple with a subsequent full left-face palsy droop, which required multiple cosmetic surgical procedures to provide some symmetry to the face and partial closure to the eyelids of the left eye.
No corneal graft to the left eye could be attempted due to recurrent thinning of the full cornea and inflammation of the vasculature. The patient was treated with ophthalmic prednisolone, topical and systemic antivirals, topical antibiotics, bandage lens, punctal plugs, and over-the-counter artificial tears and gels. This treatment regimen was continued until January 2011 when the cornea thinned to probable melt-through, necessitating corneal patch surgery. Just prior to the surgery, the patient's vision was measured at 20/2000, or finger vision.
The patient started applying 1% progesterone to their forehead twice daily just before corneal patch surgery planned for January 2011. The dose of progesterone was approximately 1 mg per application.
In September 2014, corneal tissue had sufficiently epithelialized at the perimeter to attempt a corneal graft, which was successfully completed. Progesterone 1% was applied daily to the forehead post-surgery. Within 9 months vision was restored to best correct vision pinhole 20/50.
In February 2015, the patient's visual acuity decreased as a result of the rejection of cells at the lower part of the graft. Moderate central staining continued to persist in a band where eyelids could not close. Intraocular pressure (TOP) in the left eye rose to 22 mmHg. The patient was placed on a treatment regimen that included Prednisolone Forte 6× plus Restasis for rejection 2× daily and oral valacycovir, together with mechanically taping the eyelid closed at night.
In May 2016, the patient initiated a course of twice daily dronabinol treatment, 0.5 mg each dose, to both ears. Through July, stabilization was achieved, and all other medications were discontinued. […] Visual acuity improved to 20/40.

[6] = tested on: ocular discomfort, tear film production, tremor; assay: Summary of human examples: onset, duration of efficacy and tolerance; assay type: in vivo; settings: progesterone USP 0.5 to 1 mg per dose, aqueous formulation, to the forehead; all human examples
Description: Additional findings are that very small doses in contrast to what is required in systemic delivery are required once or twice daily, but the pharmacological agents must be applied in such a manner, and from specified formulations, so that they penetrate to the epidermis. It is unnecessary to go deeper than the epidermis, or to be absorbed into the blood circulation. Thus there are no blood brain barrier issues. […] The activation appears to be remote and not proximate innervation by the agents themselves. A further finding is that there has been no buildup of tolerance after months and years of use.
All human examples of neurodegenerative disorder, Parkinson's, essential tremor, herpes ophthalmicus and chronic ocular graft-versus-host disease, had ocular discomfort and signs and symptoms that were treated by low dose progesterone USP, 0.5 to 1 mg per dose, applied in an aqueous formulation to the forehead. […] The afferent nerve accessed is CN V trigeminal nerve but the efferent parasympathetic signaling was via CN VII facial nerve and a branch the greater petrosal nerve that synapses in the pterygopalatine ganglion to innervate tear film secretion. […]
Another surprising observation is that the duration of efficacy is at least 12 hours with the easily monitored parameters such as ocular comfort, tear film production, or tremor reduction.

`CC(=O)[C@H]1CC[C@H]2[C@@H]3CCC4=CC(=O)CC[C@]4(C)[C@H]3CC[C@]12C` [progesterone] was tested, and the tremors ([1]; progesterone 1% to forehead) was “no impact on the tremors”, the dry eye disease ([1]; progesterone 1% to forehead, within the first week) was “dry eye disease resolved” and the tremor symptoms ([1]; topical progesterone additionally applied to the ear conchae) was “minimal impact on tremor symptoms”. For the same compound, the dry eye disease ([1]; topical progesterone continued during testosterone abstinence) was “continued to be well managed”, the “exudate in both eyes” value (chronic ocular GVHD [2]) was “noticeable decrease in exudate” and the “lid sticking and friction” value (chronic ocular GVHD [2]) was “improvement in lid sticking and friction”. For the same compound, the “tear film production by Tearscope” value (chronic ocular GVHD [2]) was “tear film production was observed”, the “duration of increased ocular comfort with each dose” value (chronic ocular GVHD [3]; progesterone twice a day to forehead) was “at least 5 hours” and the “increase in tear meniscus height in both eyes” value (chronic ocular GVHD [3]; single application of progesterone 1% to forehead) was “over 0.6 mm”. For the same compound, the “first-measured tear film breakup time” value (chronic ocular GVHD [3]; single dose progesterone 1% to forehead, after 30 minutes, pre-treatment 7.4 seconds) was 21.03 s, the “average tear film breakup time” value (chronic ocular GVHD [3]; single dose progesterone 1% to forehead, after 30 minutes, pre-treatment 11.39 seconds) was 21.35 s and the “comfort, patient-reported” value (chronic ocular GVHD [4]) was “improved comfort”. For the same compound, the “filaments in the left eye” value (chronic ocular GVHD [4]; 50 minutes later) was “flushing of the filaments in the left eye”, the “tear film production by Tearscope” value (chronic ocular GVHD [4]; 50 minutes later) was “production of tear film in secretions in both eyes” and the corneal thinning ([5]; 1% progesterone to forehead twice daily, approximately 1 mg per application, from January 2011) was “corneal thinning stabilized”. For the same compound, the “best correct vision pinhole” value ([5]; Progesterone 1% daily to forehead after corneal graft, within 9 months) was 20/50, the corneal melt-through ([5]; progesterone treatment continued over two years) was “without corneal melt-through” and the “tear film breakup and meibomian glands” value ([5]; when using Progesterone 1%) was “tear film breakup was normal and meibomian glands functioned well”. The “duration of ocular comfort per dose” value [6] was “at least 12 hours” and the “time to ocular comfort and tear film secretion” value [6] was “within a few minutes”.
